# Data from patent publication US20250368639A1, “SOLID FORMS OF A COMPOUND FOR TREATING OR PREVENTING HYPERURICEMIA OR GOUT” (ATOM THERAPEUTICS CO., LTD, priority 2022, published 2025).
# What was measured:
# [1] = target: T1, URAT1 (Homo sapiens, UniProt Q96S37); experiment: Inhibitory effect on URAT1; conditions: in comparison with other treatments
# T1 sequence (Q96S37 1-553): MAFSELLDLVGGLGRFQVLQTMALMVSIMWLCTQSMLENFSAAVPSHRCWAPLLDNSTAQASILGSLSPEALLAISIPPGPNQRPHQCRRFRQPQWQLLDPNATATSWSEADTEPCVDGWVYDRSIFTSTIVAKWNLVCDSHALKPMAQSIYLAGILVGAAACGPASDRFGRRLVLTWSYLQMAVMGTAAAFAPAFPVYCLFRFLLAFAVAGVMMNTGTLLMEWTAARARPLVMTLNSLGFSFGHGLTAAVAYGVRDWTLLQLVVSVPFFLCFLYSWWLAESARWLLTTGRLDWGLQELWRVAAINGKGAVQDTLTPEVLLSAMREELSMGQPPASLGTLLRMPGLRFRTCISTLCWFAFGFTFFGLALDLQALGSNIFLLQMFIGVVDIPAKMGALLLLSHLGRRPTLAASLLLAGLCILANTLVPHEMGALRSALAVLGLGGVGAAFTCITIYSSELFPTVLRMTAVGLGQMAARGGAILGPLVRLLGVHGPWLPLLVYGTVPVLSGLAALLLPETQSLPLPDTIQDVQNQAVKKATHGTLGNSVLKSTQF
# [2] = Uric acid excretion in mice; format: in vivo; conditions: in comparison with other treatments
# [3] = tested on: normal liver cells; experiment: Toxicity to normal liver cells; format: cell-based; conditions: in comparison with other treatments
# [4] = rat, in vivo
structure (smiles),measurement,setting,value
"CCc1nc2ccccn2c1C(=O)c1cc(Br)c(O)c(C#N)c1 [Compound I, 3-bromo-5-[(2-ethylimidazo[1,2-a]pyridin-3-yl)carbonyl]-2-hydroxybenzonitrile]",Inhibitory effect on URAT1,[1],significantly improve the inhibitory effect on URAT1
same,Uric acid excretion,[2],significantly increase uric acid excretion in mice
same,Toxicity to normal liver cells,[3],reduce the toxicity to normal liver cells
same,"Toxicity (oral maximum tolerated dose, acute toxicity test)",[4],much lower than other treatments
